# Reference: patent publication US20030236202A1, “Natural products and derivatives thereof for protection against neurodegenerative diseases” (priority 2002, published 2003)
# Key:
# [1] = system: primary hippocampal cultures from rat; assay: Neuroprotection: rescue of neuronal cells from neurotoxin-induced apoptosis; assay type: cell-based; conditions: 50 μM
# Experimental: The capacity of two phenolic compounds to rescue neuronal cells from different kind of stressors was tested. To primary hippocampal cultures from rat, different neurotoxins (glutamate, hydrogen peroxide or beta-amyloid peptide) were added in such concentrations that in half of the cells apoptosis was induced. Then, together with the toxins, hydroxytyrosol or tyrosol were added in a final concentration of 50 μM, and the cells were incubated for 24 h. at 37° C. Subsequently, apoptosis was measured in the cell cultures and the number of cells that were protected by this treatment as compared to a control was calculated. […] Hydroxytyrosol protected around 60% of the cells against hydrogen peroxide, 35% against glutamate-induced neurotoxicity, and 45% against beta-amyloid induced apoptosis.
# [2] = Total antioxidant capacity of cerebrospinal fluid after oral administration; assay type: in vivo; conditions: rat, 100 mg oral, after 15 min
# Experimental: Several rats were given 100 mg hydroxytyrosol by oral administration. After 15 min a small amount of cerebrospinal fluid was taken from the rat and analysed for the presence of hydroxytyrosol. Also the total antioxidant capacity in this fluid was measured and compared with a control. The detection of hydroxytyrosol was accomplished by gas chromatography and concentrations were determined by a standard curve. Hydroxytyrosol reached a concentration between 0.1 and 0.2 mM in cerebrospinal fluid after 15 minutes of oral administration. Moreover, the total antioxidant capacity of cerebrospinal fluid increased by 35% under these conditions as compared to a control.
# [3] = biological target: T1, monoamine oxidase B (MAO-B) (Rattus norvegicus, UniProt P19643); assay: Monoamine oxidase inhibition, purified mitochondria from rat brain tissue; assay type: biochemical; conditions: benzylamine (300 μM) as substrate
# T1 construct: MAO-B enzyme activities were measured using purified mitochondria from rat brain tissue; from tissue; host or cells: purified mitochondria from rat brain tissue
# T1 sequence (P19643 1-520): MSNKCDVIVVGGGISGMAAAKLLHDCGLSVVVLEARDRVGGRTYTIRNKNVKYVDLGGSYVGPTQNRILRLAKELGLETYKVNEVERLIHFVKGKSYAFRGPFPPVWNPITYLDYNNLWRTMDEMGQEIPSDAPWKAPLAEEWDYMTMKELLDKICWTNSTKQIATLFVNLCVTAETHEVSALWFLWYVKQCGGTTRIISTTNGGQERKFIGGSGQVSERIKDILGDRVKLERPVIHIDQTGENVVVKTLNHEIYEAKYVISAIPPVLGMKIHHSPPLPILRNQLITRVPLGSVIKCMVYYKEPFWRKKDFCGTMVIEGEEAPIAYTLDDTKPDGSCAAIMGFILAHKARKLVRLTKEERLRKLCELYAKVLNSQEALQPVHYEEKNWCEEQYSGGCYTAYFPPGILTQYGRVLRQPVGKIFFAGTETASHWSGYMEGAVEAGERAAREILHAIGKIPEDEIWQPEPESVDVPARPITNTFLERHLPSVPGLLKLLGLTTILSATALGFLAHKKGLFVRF
# Experimental: We determined the IC50 of hydroxytyrosol for monoamine oxidase B (MAO-B). Therefore, MAO-B enzyme activities were measured using purified mitochondria from rat brain tissue as described previously (Holt et al. Anal. Biochem. 1997, 244, 384-392). Benzylamine (300 μM) was used as a substrate for MAO-B and the IC50 was calculated by adding different amounts of hydroxytyrosol to the enzyme assay.
# [4] = system: Beta-amyloid peptide (1-40); assay: Prevention of metal-induced beta-amyloid precipitation (turbidometric assay); conditions: 25 μM compound, 10 μM beta-amyloid (1-40)
# Experimental: Therefore, an experiment was performed to study its capacity to solubilize beta-amyloid peptide from insoluble aggregates. Beta-amyloid peptide (1-40) was brought to 10 μM in 150 mM NaCl, 50 mM HEPES (pH 7.4), and mixed with 10 μM CuCl2 or 10 μM FeCl3. Precipitation of beta-amyloid peptide by copper and iron was measured by a turbidometric assay (Huang et al. J. Biol. Chem. 1997, 272(42), 26464-70). Copper- and iron-induced turbidity was almost completely abolished (>90%) by the presence of 25 μM hydroxytyrosol.
# [5] = Binding of metal ions
# [6] = Compound in cerebrospinal fluid of rats after oral administration (gas chromatography); assay type: in vivo, rat; conditions: rats which had received tyrosol orally
# [7] = 24 h at 37° C., toxin inducing apoptosis in half of the cells
Compound,"Cells protected against beta-amyloid induced apoptosis [1, 7] [%]","Cells protected against glutamate-induced neurotoxicity [1, 7] [%]","Cells protected against hydrogen peroxide [1, 7]",Increase of total antioxidant capacity of cerebrospinal fluid as compared to a control [2] [%],IC50 [3] [µM],"Copper-induced turbidity abolished ([4]; 10 μM CuCl2, pH 7.4) [%]","Iron-induced turbidity abolished ([4]; 10 μM FeCl3, pH 7.4) [%]","Binding of iron, zinc and copper ions (in words) [5]","Protection of cells from dying (in words) ([1]; 24 h, glutamate, hydrogen peroxide or beta-amyloid peptide)",Tyrosol in cerebrospinal fluid (in words) [6]
"OCCc1ccc(O)c(O)c1 [Hydroxytyrosol, 2-(3,4-dihydroxyphenyl) ethanol]",~45,~35,around 60%,35,16.3 ± 1.3,> 90,> 90,high affinity,–,–
"OCCc1ccc(O)cc1 [Tyrosol, 2-(4-hydroxyphenyl) ethanol]",–,–,–,–,–,–,–,–,protected part of the cells from dying,detected
